Results from PubChem BioAssay (NCI).
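1) Cells in 96-well plates. 2) Compound, 48 h, 5 concentrations. 3) Linear interpolation between surrounding doses. 4) Unreached endpoint = highest concentration. GI50 is the concentration that inhibits growth by half. The concentration for full growth arrest is given as TGI.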

Legend:
Experiment in all cases: inhibition of tumour cell growth, NCI panel, 48 h
[1] = system: 786-0 renal
[2] = system: CAKI-1 renal
[3] = system: HCC-2998 colon
[4] = system: HCT-15 colon
[5] = system: HOP-62 NSCLC
[6] = system: KM12 colon
[7] = system: LOX IMVI melanoma
[8] = system: NCI-H226 lung
[9] = system: OVCAR-3 ovarian
[10] = system: SF-539 CNS
[11] = system: SK-MEL-28 melanoma
[12] = system: SN12C renal
[13] = system: SR leukemia
[14] = system: U251 CNS
[15] = system: UACC-257 melanoma
[16] = system: DU-145 prostate
[17] = system: MDA-MB-231 breast
[18] = system: MDA-N

| Structure (SMILES) | TGI [1] [µM] | TGI [2] [µM] | TGI [3] [µM] | TGI [4] [µM] | TGI [5] [µM] | TGI [6] [µM] | TGI [7] [µM] | TGI [8] [µM] | TGI [9] [µM] | TGI [10] [µM] | TGI [11] [µM] | TGI [12] [µM] | TGI [13] [µM] | TGI [14] [µM] | TGI [15] [µM] | TGI [16] [µM] | TGI [17] [µM] | TGI [18] [µM] | GI50 [8] [µM] | GI50 [9] [µM] |
| --- | --- | --- | --- | --- | --- | --- | --- | --- | --- | --- | --- | --- | --- | --- | --- | --- | --- | --- | --- | --- |
| COc1ccc(/C(Cl)=C(\C=N/O)c2ccc(OC)c(OC)c2)cc1OC | > 100 | > 100 | > 100 | > 100 | > 100 | > 100 | > 100 | > 100 | > 100 | > 100 | > 100 | > 100 | > 100 | > 100 | > 100 |  |  |  |  |  |
| COc1cc(/C=N/n2c(-c3ccccc3)nn(C(C)=O)c2=O)cc(OC)c1OC | > 53.1 | > 100 | 16.3 | > 100 | > 100 | > 59.5 | > 100 | > 100 |  | 8.54 | > 80.6 | > 100 |  | > 44.6 | > 39.3 | > 89.1 | 64.3 | 3.83 |  |  |
| Cc1cc(/C=C/c2cc[n+](C)c3ccccc23)c(O)c2ncccc12 | 14.3 | 27.6 | 14.5 | 49.8 | 15 | 18.6 | 12.3 | 7.14 | 3.97 | 1.99 | 13.6 | 16 | 4.3 | 13.5 | 13.5 |  |  |  |  |  |
| CCOC(=O)c1cc2/c(=C\c3ccc(N(C)C)cc3)c3ccccc3n2[n+]1C | 15 | 15.3 | 10 | 31.9 |  | 1.4 | 3.78 | 24.6 | 0.581 | 4.02 | 14 | 14.4 |  | 11.8 | 11.8 | 17.4 | 18.9 | 15.3 |  |  |
| CCCCCCCCCCCCCCCCCCNC(=S)/N=C\C1=C(O)c2ccccc2C1=O | 21.2 | 31.2 | 6.4 | 26.7 | 22.2 | 22.7 | 17 | 25.6 | 29.1 | 36.7 | 30.7 | 31.1 |  | 18.3 | 33.6 | 19.2 | 24.6 | 31.4 |  |  |
| N#Cc1c(-c2ccc(Cl)cc2)[nH]c(=O)n(C2OC(CO)C(O)C(O)C2O)c1=O (centres undefined) | > 100 | > 100 | > 100 | > 100 | > 100 | > 100 |  | > 100 | > 100 | > 100 | > 100 | > 100 |  | > 100 | > 100 | > 100 | > 100 |  |  |  |
| COc1ccccc1-c1cc(=O)c2cc3c(cc2[nH]1)OCO3 | > 100 |  | > 100 | > 100 | > 100 |  | > 100 | 88.8 | > 100 | 70.6 | > 100 | > 100 | > 100 | > 100 | > 100 |  |  |  | 22.8 | 39.9 |
| O=c1[nH]nc(Cc2c[nH]c3ccccc23)o1 | > 100 | > 100 | > 100 | > 100 | > 100 | > 100 | > 100 | > 100 | > 100 | > 100 | > 100 | > 100 |  | > 100 | > 100 | > 100 | > 100 | > 100 |  |  |
| OC(c1ccc(C(F)(F)F)cc1)C(F)(F)c1nc2ccccc2o1 (centres undefined) | > 100 | > 100 | > 100 | > 100 | > 100 | > 100 | > 100 | > 100 |  | > 100 | > 100 |  | > 100 | > 100 | > 100 | > 100 | > 100 |  |  |  |
| COc1ccc(C2SCC(=O)N2NC(=O)c2ccc(NC(C)=O)cc2)c(OC)c1 (centres undefined) | > 100 |  | > 100 | > 100 | > 100 | > 100 |  | > 100 | > 100 | > 100 | > 100 | > 100 |  | > 100 | > 100 | > 100 | > 100 | > 100 |  |  |
| CC(C)N=C(N)NC#N |  | > 100 | > 100 | > 100 | > 100 | > 100 | > 100 | > 100 | > 100 | > 100 |  | > 100 |  |  | > 100 |  |  |  |  |  |
| COC(O)C(=O)c1ccc2c(c1)CC1(C2)Cc2cc3c(cc2C1=O)CCC3 (centres undefined) | 31.4 | 31.2 | 38.6 | 58 | 38.8 | 43.9 | 10.1 | 43.6 | 34.5 | 35.4 | 29.6 | 29.6 |  | 35.5 | 39.7 | 31.1 | 73.3 | 42.3 |  |  |
| O=C(Nc1ccc2[nH]c(C(=O)N3CC(CCl)c4c3cc([N+](=O)[O-])c3ccccc43)cc2c1)Nc1ccc2[nH]c(C(=O)N3CC(CCl)c4c3cc([N+](=O)[O-])c3ccccc43)cc2c1 (centres undefined) | > 100 | > 100 |  | > 100 | > 100 | > 100 |  | > 100 | > 100 | > 100 | > 100 | > 100 |  | > 100 | > 100 | > 100 | > 100 | > 100 |  |  |
| Cc1c(N2CCN(C)CC2)nc2ccc(Cl)cc2c1-c1ccccc1 | 27.9 | 41.6 | > 10 | 40.7 | 36.6 | 28.5 | 28.3 |  | 74.3 | 33.9 | 32.9 | 29 | 39.2 | 33.1 | 33 |  |  |  |  |  |
| CCOc1ccc(N/C(=C(/C(Cl)=C(/Cl)N2CCCCC2)[N+](=O)[O-])n2nnc3ccccc32)cc1 | 39.8 | 28.4 | 59.2 | 29 | 42.6 | 31.6 |  | 58.7 | 33.7 | 36.9 | 34.2 | 41.9 |  | 30.8 | 38.6 | 82.4 | 44.5 | 52.4 |  |  |
| Nc1nc2ncc(CNc3ccc(C(=O)NC(CCC(=O)O)C(=O)O)cc3)nc2c(=O)[nH]1 (centres undefined) | > 100 |  | > 100 | > 100 | > 100 | > 100 | > 100 | > 100 | > 100 | > 100 | > 100 | > 100 | > 100 | > 100 | > 100 |  |  |  |  |  |
| CSc1nc(NC2OC(COC(C)=O)C(OC(C)=O)C(OC(C)=O)C2OC(C)=O)c2c(n1)OCC2=O (centres undefined) | > 100 | > 100 |  | > 100 | > 100 | > 100 | > 100 | > 100 | > 100 | > 100 | > 100 | > 100 | > 100 | > 100 | > 100 |  |  |  |  |  |
| CC(C)[C@H](NC(=O)[C@H](N)Cc1ccc(N(CCCl)CCCl)cc1)C(=O)O | > 100 | > 100 | > 100 | > 100 | > 100 | > 100 | > 100 | > 100 | > 100 |  | > 100 | > 100 |  | > 100 | > 100 | > 100 | > 100 | > 100 |  |  |
| COc1ccc(Cc2nnc(Nc3ccc(Br)cc3)[nH]c2=O)cc1OC | > 100 | > 100 | > 100 | > 100 | > 95.8 | > 100 | > 100 | > 100 | > 100 | > 100 | > 100 | > 100 | > 94.3 | > 100 | > 100 | > 100 | > 100 |  |  |  |
| CC(=O)Nc1ccc2c3c(cc(O)c2c1)N(C(=O)CCCCCCC(=O)N1CC(CCl)c2c1cc(O)c1cc(NC(C)=O)ccc21)CC3CCl (centres undefined) | 0.0204 | 0.894 |  | 3.59 |  | 12.7 | 0.361 |  |  | 0.0413 | > 100 | 0.237 |  |  |  | < 0.01 |  |  |  |  |
| Cc1cc(Cc2cc(C)c(NC(=O)C(=O)C3CCC4=C(SC5C=CC=CC5N4)C3=O)c(C(C)C)c2)cc(C(C)C)c1NC(=O)C(=O)C1CCC2=C(SC3C=CC=CC3N2)C1=O (centres undefined) | > 100 | > 100 | > 100 | > 100 | > 100 | > 100 | > 100 | > 100 | > 100 | > 100 | > 100 | > 100 | > 100 | > 100 | > 100 | > 100 | > 100 |  |  |  |
| CC1=C(O)C(=O)C2C(=O)C1C1Cc3ccccc3C21 (centres undefined) | > 100 | > 100 | > 100 | > 100 | > 100 | > 100 | > 100 | > 100 | > 100 | > 100 | > 100 |  | > 100 | > 100 |  |  |  |  |  |  |
